According to the supplement of paper PMC8967900:

Each compound was assayed on PF-382 (assay: selective drug sensitivity score (sDSS, relative to normal bone marrow) (sDSS (score)); higher = more potent and effective on the cell line relative to normal bone marrow cells). Conditions: 72 h.
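Note: ALL cell lines in 384-well plates, five doses spanning 10,000-fold, each plate scaled between vehicle and 100 µmol/L benzalkonium chloride controls, sDSS an adapted area-under-curve metric.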

| Structure (SMILES) | selective drug sensitivity score |
| --- | --- |
| Cn1cc(C2=C(c3cn(C4CCN(Cc5ccccn5)CC4)c4ccccc34)C(=O)NC2=O)c2ccccc21 [Enzastaurin] (top concentration 10000 nM) | 3.36 |
| NS(=O)(=O)NCCNc1nonc1/C(=N/O)Nc1ccc(F)c(Br)c1 [Epacadostat] (top concentration 10000 nM) | -0.26 |
| CCOc1ccccc1-n1c(C(C)N2CCN(C(=O)COc3ccc(Cl)cc3)CC2)nc2ccccc2c1=O (stereo not given) [Erastin] (top concentration 10000 nM) | 21 |
| COc1cc(OC)cc(N(CCNC(C)C)c2ccc3ncc(-c4cnn(C)c4)nc3c2)c1 [Erdafitinib] (top concentration 1000 nM) | -0.56 |
| CC(C)(C)NC(=O)[C@H]1CC[C@H]2[C@@H]3CC[C@H]4NC(=O)C=C[C@]4(C)[C@H]3CC[C@]12C [Finasteride] (top concentration 10000 nM) | -0.52 |
| O=c1[nH]c(=O)n([C@H]2C[C@H](O)[C@@H](CO)O2)cc1F [Floxuridine] (top concentration 10000 nM) | 9.82 |
| CNc1nc(Nc2cn(C(C)(C)C#N)nc2C)ncc1C(F)(F)F [GNE-0877] (top concentration 1000 nM) | 0 |
| CCCc1cc(C)[nH]c(=O)c1CNC(=O)c1cc(-c2ccnc(N3CCN(C)CC3)c2)cc2c1cnn2C(C)C [GSK343] (top concentration 1000 nM) | 0 |
| O=C(O)c1ccc(O)c2ncccc12 [IOX-1] (top concentration 100000 nM) | 4.44 |

What follows are compounds tested on JURKAT in the same assay as above. Conditions: 72 h.

| Structure (SMILES) | selective drug sensitivity score |
| --- | --- |
| CCCCCOC(=O)Nc1nc(=O)n([C@@H]2O[C@H](C)[C@@H](O)[C@H]2O)cc1F [Capecitabine] (top concentration 10000 nM) | -0.06 |
| Nc1nc(Cl)nc2c1ncn2[C@H]1C[C@H](O)[C@@H](CO)O1 [Cladribine] (top concentration 1000 nM) | -10.7 |
| CCN(CC)CCOc1ccc(/C(=C(/Cl)c2ccccc2)c2ccccc2)cc1 [Clomifene] (top concentration 10000 nM) | -1.28 |
| CO[C@@H](C(=O)N1Cc2[nH]nc(NC(=O)c3ccc(N4CCN(C)CC4)cc3)c2C1)c1ccccc1 [Danusertib] (top concentration 10000 nM) | -0.96 |
| CC[C@@](C)(Nc1ccnc(-c2c[nH]c3ncccc23)n1)C(=O)NCC(F)(F)F [Decernotinib] (top concentration 10000 nM) | -3.94 |
| CN1CCN(c2ccc3nc(-c4c(N)c5c(F)cccc5[nH]c4=O)[nH]c3c2)CC1 [Dovitinib] (top concentration 10000 nM) | -0.14 |
| CC(C)(O)CNc1nc(Nc2ccnc(C(F)(F)F)c2)nc(-c2cccc(C(F)(F)F)n2)n1 [Enasidenib] (top concentration 10000 nM) | -0.7 |
| CN1CCN(c2ccc(C(=O)Nc3n[nH]c4ccc(Cc5cc(F)cc(F)c5)cc34)c(NC3CCOCC3)c2)CC1 [Entrectinib] (top concentration 1000 nM) | -1.2 |
| CNC(=O)c1ccc(N2C(=S)N(c3ccc(C#N)c(C(F)(F)F)c3)C(=O)C2(C)C)cc1F [Enzalutamide] (top concentration 10000 nM) | 1.18 |
| Cn1cc(C2=C(c3cn(C4CCN(Cc5ccccn5)CC4)c4ccccc34)C(=O)NC2=O)c2ccccc21 [Enzastaurin] (top concentration 10000 nM) | 4.26 |
| NS(=O)(=O)NCCNc1nonc1/C(=N/O)Nc1ccc(F)c(Br)c1 [Epacadostat] (top concentration 10000 nM) | -0.16 |
| CCOc1ccccc1-n1c(C(C)N2CCN(C(=O)COc3ccc(Cl)cc3)CC2)nc2ccccc2c1=O (stereo not given) [Erastin] (top concentration 10000 nM) | -0.16 |
| COc1cc(OC)cc(N(CCNC(C)C)c2ccc3ncc(-c4cnn(C)c4)nc3c2)c1 [Erdafitinib] (top concentration 1000 nM) | -0.56 |
| CC(C)(C)NC(=O)[C@H]1CC[C@H]2[C@@H]3CC[C@H]4NC(=O)C=C[C@]4(C)[C@H]3CC[C@]12C [Finasteride] (top concentration 10000 nM) | -0.52 |
| O=c1[nH]c(=O)n([C@H]2C[C@H](O)[C@@H](CO)O2)cc1F [Floxuridine] (top concentration 10000 nM) | 18.7 |
| CNc1nc(Nc2cn(C(C)(C)C#N)nc2C)ncc1C(F)(F)F [GNE-0877] (top concentration 1000 nM) | 0 |
| CCCc1cc(C)[nH]c(=O)c1CNC(=O)c1cc(-c2ccnc(N3CCN(C)CC3)c2)cc2c1cnn2C(C)C [GSK343] (top concentration 1000 nM) | 0 |
| O=C(O)c1ccc(O)c2ncccc12 [IOX-1] (top concentration 100000 nM) | 3.54 |

These compounds were tested on CCRF-HSB2 in the same assay as above. Conditions: 72 h.

| Structure (SMILES) | selective drug sensitivity score |
| --- | --- |
| CCCCCOC(=O)Nc1nc(=O)n([C@@H]2O[C@H](C)[C@@H](O)[C@H]2O)cc1F [Capecitabine] (top concentration 10000 nM) | -0.06 |
| Nc1nc(Cl)nc2c1ncn2[C@H]1C[C@H](O)[C@@H](CO)O1 [Cladribine] (top concentration 1000 nM) | -0.04 |
| CCN(CC)CCOc1ccc(/C(=C(/Cl)c2ccccc2)c2ccccc2)cc1 [Clomifene] (top concentration 10000 nM) | 1.52 |
| CO[C@@H](C(=O)N1Cc2[nH]nc(NC(=O)c3ccc(N4CCN(C)CC4)cc3)c2C1)c1ccccc1 [Danusertib] (top concentration 10000 nM) | 19.8 |
| CC[C@@](C)(Nc1ccnc(-c2c[nH]c3ncccc23)n1)C(=O)NCC(F)(F)F [Decernotinib] (top concentration 10000 nM) | 1.16 |
| CN1CCN(c2ccc3nc(-c4c(N)c5c(F)cccc5[nH]c4=O)[nH]c3c2)CC1 [Dovitinib] (top concentration 10000 nM) | 1.86 |
| CC(C)(O)CNc1nc(Nc2ccnc(C(F)(F)F)c2)nc(-c2cccc(C(F)(F)F)n2)n1 [Enasidenib] (top concentration 10000 nM) | -0.1 |
| CN1CCN(c2ccc(C(=O)Nc3n[nH]c4ccc(Cc5cc(F)cc(F)c5)cc34)c(NC3CCOCC3)c2)CC1 [Entrectinib] (top concentration 1000 nM) | 0.9 |
| CNC(=O)c1ccc(N2C(=S)N(c3ccc(C#N)c(C(F)(F)F)c3)C(=O)C2(C)C)cc1F [Enzalutamide] (top concentration 10000 nM) | -0.52 |
| Cn1cc(C2=C(c3cn(C4CCN(Cc5ccccn5)CC4)c4ccccc34)C(=O)NC2=O)c2ccccc21 [Enzastaurin] (top concentration 10000 nM) | 5.06 |
| NS(=O)(=O)NCCNc1nonc1/C(=N/O)Nc1ccc(F)c(Br)c1 [Epacadostat] (top concentration 10000 nM) | -0.26 |
| CCOc1ccccc1-n1c(C(C)N2CCN(C(=O)COc3ccc(Cl)cc3)CC2)nc2ccccc2c1=O (stereo not given) [Erastin] (top concentration 10000 nM) | 10.6 |
| COc1cc(OC)cc(N(CCNC(C)C)c2ccc3ncc(-c4cnn(C)c4)nc3c2)c1 [Erdafitinib] (top concentration 1000 nM) | 3.04 |
| CC(C)(C)NC(=O)[C@H]1CC[C@H]2[C@@H]3CC[C@H]4NC(=O)C=C[C@]4(C)[C@H]3CC[C@]12C [Finasteride] (top concentration 10000 nM) | -0.52 |
| O=c1[nH]c(=O)n([C@H]2C[C@H](O)[C@@H](CO)O2)cc1F [Floxuridine] (top concentration 10000 nM) | 4.42 |
| CNc1nc(Nc2cn(C(C)(C)C#N)nc2C)ncc1C(F)(F)F [GNE-0877] (top concentration 1000 nM) | 0 |
| CCCc1cc(C)[nH]c(=O)c1CNC(=O)c1cc(-c2ccnc(N3CCN(C)CC3)c2)cc2c1cnn2C(C)C [GSK343] (top concentration 1000 nM) | 0 |
| O=C(O)c1ccc(O)c2ncccc12 [IOX-1] (top concentration 100000 nM) | 5.34 |
